Experimental data reported in ChEMBL document CHEMBL4837199, “Design and evaluation of novel piperidine HIV-1 protease inhibitors with potency against DRV-resistant variants” (Eur J Med Chem, 2021).

Tests used:
[1] = Cytotoxicity against HEK293T cells assessed as reduction in cell viability incubated for 24 hrs by CCK8 assay; type: cell-based, HEK-293T; settings: human
[2] = target: Human immunodeficiency virus type 1 protease (Human immunodeficiency virus 1, UniProt Q72874); test: Inhibition of wild type HIV1 protease using Arg-Glu (EDANS)-Ser-Gln-Asn-Tyr-Pro-Ile-Val-Gln-Lys(DABCYL)-Arg as substrate preincubated for 20 to 30 mins followed by substrate addition and measured for 10 mins by FRET assay
[3] = system: Human immunodeficiency virus 1; test: Antiviral activity against HIV1; type: functional, organism-based
[4] = Selectivity index, ratio of CC50 for cytotoxicity against HEK293T cells to IC50 of antiviral activity against HIV1; type: toxicity, cell-based; settings: human, read-out: Ratio CC50/IC50
[5] = system: Human immunodeficiency virus 1; test: Antiviral activity against HIV1 Env-deficient VSV-G pseudotyped virus infected in human SUP-T1 cells infected with supernatant of compound treated virus-producing 293T cells assessed as inhibition of late stage viral production at 10 uM treated for 48 hrs with virus-producing 293T cells followed by SUP-T1 cells infection for 48 hrs by single-round infection luciferase assay relative to control; type: functional; settings: Human immunodeficiency virus 1, SUP-T1, time 96 hrs
[6] = system: Human immunodeficiency virus 1; test: Antiviral activity against HIV1 (NL4-3) Env-deficient VSV-G pseudotyped virus infected in human SUP-T1 cells assessed as inhibition of early stage viral production at 10 uM measured after 48 hrs by luciferase assay relative to control; type: functional; settings: Human immunodeficiency virus 1, NL4-3, SUP-T1
[7] = system: Human immunodeficiency virus 1; test: Antiviral activity against HIV1 subtype C isolate 11928; type: functional, organism-based
[8] = Resistance index, ratio of IC50 for DRV resistant HIV1 infected in human MT4 cells to IC50 for HIV1 NL4-3 infected in human MT4 cells; type: functional
[9] = system: Human immunodeficiency virus 1; test: Antiviral activity against HIV1 subtype C isolate 11941; type: functional, organism-based
[10] = system: Human immunodeficiency virus 1; test: Antiviral activity against HIV1 subtype C isolate 11929; type: functional, organism-based; settings: Human immunodeficiency virus 1, subtype C isolate 11929
[11] = target: Human immunodeficiency virus type 1 protease (Human immunodeficiency virus 1) (UniProt Q72874); test: Potency index, ratio of DRV Ki to test compound Ki for inhibition of wild type HIV1 protease using Arg-Glu (EDANS)-Ser-Gln-Asn-Tyr-Pro-Ile-Val-Gln-Lys(DABCYL)-Arg as substrate preincubated for 20 to 30 mins followed by substrate addition and measured for 10 mins by FRET assay; settings: time 30-40 min
[12] = system: Human immunodeficiency virus 1; test: Antiviral activity against DRV resistant HIV1 infected in human MT4 cells assessed as reduction in viral replication by measuring reduction in p24 Gag production by chemiluminescent-EIA; type: functional, organism-based; settings: Human immunodeficiency virus 1, MT4
[13] = system: Human immunodeficiency virus 1; test: Antiviral activity against HIV1 NL4-3 infected in human MT4 cells assessed as reduction in viral replication by measuring reduction in p24 Gag production by chemiluminescent-EIA; type: functional, organism-based; settings: Human immunodeficiency virus 1, NL4-3, MT4
[14] = system: Human immunodeficiency virus 1; test: Antiviral activity against HIV1 subtype C isolate-plndie; type: functional, organism-based; settings: Human immunodeficiency virus 1, subtype C isolate-plndie
[15] = system: Human immunodeficiency virus 1; test: Antiviral activity against HIV1 Env-deficient VSV-G pseudotyped virus infected in human SUP-T1 cells infected with supernatant of compound treated virus-producing 293T cells assessed as inhibition of late stage viral production at 100 nM treated for 48 hrs with virus-producing 293T cells followed by SUP-T1 cells infection for 48 hrs by single-round infection luciferase assay relative to control; type: functional; settings: Human immunodeficiency virus 1, SUP-T1, time 96 hrs

## CC(C)CN(C[C@@H](O)[C@H](Cc1ccccc1)NC(=O)[C@@H]1CCCNC1)S(=O)(=O)c1ccc(C(F)(F)F)cc1
[1]
  CC50 at 24 h: > 100000 nM
[2]
  Ki: 0.1 nM
[3]
  IC50: 0.45 nM
[4]
  selectivity ratio: > 222000

## COc1ccc(S(=O)(=O)N(CC(C)C)C[C@@H](O)[C@H](Cc2ccccc2)NC(=O)[C@@H]2CCCN(C)C2)cc1
[1]
  CC50 at 24 h: > 100000 nM
[2]
  Ki: 0.04 nM
[5]
  inhibition at 10 µM: 98%
[6]
  inhibition at 10 µM: 5%
[3]
  IC50: 0.18 nM
[4]
  selectivity ratio: > 556000

## CC(C)CN(C[C@@H](O)[C@H](Cc1ccccc1)NC(=O)[C@@H]1CCCN(C)C1)S(=O)(=O)c1ccc(N)cc1
[1]
  CC50 at 24 h: > 100000 nM
[2]
  Ki: 0.3 nM
[5]
  inhibition at 10 µM: 83%
[3]
  IC50: 1.35 nM
[4]
  selectivity ratio: > 74100

## COc1ccc(S(=O)(=O)N(CC(C)C)C[C@@H](O)[C@H](Cc2ccccc2)NC(=O)[C@@H]2CCCNC2)cc1
[1]
  CC50 at 24 h: > 100000 nM
[2]
  Ki: 0.029 nM
[7]
  EC50: 49400 nM
[5]
  inhibition at 10 µM: 99%
[8]
  Ratio IC50: 1.8
[9]
  EC50: 11800 nM
[10]
  EC50: 14800 nM
[6]
  inhibition at 10 µM: 3%
[11]
  Ratio Ki: 6
[12]
  EC50: 900 nM
[13]
  EC50: 500 nM
[14]
  EC50: 26300 nM
[3]
  IC50: 0.13 nM
[4]
  selectivity ratio: > 769000

## CC(C)CN(C[C@@H](O)[C@H](Cc1ccccc1)NC(=O)[C@@H]1CCCN(C)C1)S(=O)(=O)c1ccc(C(F)(F)F)cc1
[1]
  CC50 at 24 h: > 100000 nM
[2]
  Ki: 0.19 nM
[5]
  inhibition at 10 µM: 88%
[3]
  IC50: 0.84 nM
[4]
  selectivity ratio: > 119000

## CC(C)CN(C[C@@H](O)[C@H](Cc1ccccc1)NC(=O)[C@H]1CCCNC1)S(=O)(=O)c1ccc(C(F)(F)F)cc1
[2]
  Ki: 43.9 nM
[3]
  IC50: 196 nM

## COc1ccc(S(=O)(=O)N(CC(C)C)C[C@@H](O)[C@H](Cc2ccccc2)NC(=O)OC[C@H]2CCCNC2)cc1
[1]
  CC50 at 24 h: > 100000 nM
[2]
  Ki: 0.3 nM
[3]
  IC50: 1.35 nM
[4]
  selectivity ratio: > 74100

## CC(C)CN(C[C@@H](O)[C@H](Cc1ccccc1)NC(=O)[C@H]1CCCNC1)S(=O)(=O)c1ccc(N)cc1
[2]
  Ki: 40.5 nM
[3]
  IC50: 181 nM

## CC(C)CN(C[C@@H](O)[C@H](Cc1ccccc1)NC(=O)O[C@H]1CO[C@H]2OCC[C@H]21)S(=O)(=O)c1ccc(N)cc1
[1]
  CC50 at 24 h: > 100000 nM
[7]
  EC50: 2010 nM
[9]
  EC50: 910 nM
[15]
  inhibition at 0.1 µM: 100%
[10]
  EC50: 3630 nM
[12]
  EC50: 240 nM
[13]
  EC50: 3.9 nM
[14]
  EC50: 1260 nM

## COc1ccc(S(=O)(=O)N(CC(C)C)C[C@@H](O)[C@H](Cc2ccccc2)NC(=O)[C@H]2CCCNC2)cc1
[2]
  Ki: 9.99 nM
[5]
  inhibition at 10 µM: 93%
[3]
  IC50: 44.6 nM

## COc1ccc(S(=O)(=O)N(CC(C)C)C[C@@H](O)[C@H](Cc2ccccc2)NC(=O)OC[C@@H]2CCCNC2)cc1
[1]
  CC50 at 24 h: > 100000 nM
[2]
  Ki: 0.1 nM
[5]
  inhibition at 10 µM: 94%
[3]
  IC50: 0.43 nM
[4]
  selectivity ratio: > 233000

## COc1ccc(S(=O)(=O)N(CC(C)C)C[C@@H](O)[C@H](Cc2ccccc2)NC(=O)[C@@H]2CCCCN2)cc1
[1]
  CC50 at 24 h: > 100000 nM
[2]
  Ki: 0.33 nM
[5]
  inhibition at 10 µM: 79%
[3]
  IC50: 1.46 nM
[4]
  selectivity ratio: > 68500

## CC(C)CN(C[C@@H](O)[C@H](Cc1ccccc1)NC(=O)OC[C@@H]1CCCNC1)S(=O)(=O)c1ccc(N)cc1
[1]
  CC50 at 24 h: > 100000 nM
[2]
  Ki: 0.28 nM
[5]
  inhibition at 10 µM: 71%
[3]
  IC50: 1.27 nM
[4]
  selectivity ratio: > 78700

## CC(C)CN(C[C@@H](O)[C@H](Cc1ccccc1)NC(=O)C1CCNCC1)S(=O)(=O)c1ccc(N)cc1
[2]
  Ki: 5.52 nM
[3]
  IC50: 24.6 nM

## CC(C)CN(C[C@@H](O)[C@H](Cc1ccccc1)NC(=O)[C@@H]1CCCNC1)S(=O)(=O)c1ccc(N)cc1
[1]
  CC50 at 24 h: > 100000 nM
[2]
  Ki: 0.27 nM
[5]
  inhibition at 10 µM: 81%
[3]
  IC50: 1.21 nM
[4]
  selectivity ratio: > 82600

## CC(C)CN(C[C@@H](O)[C@H](Cc1ccccc1)NC(=O)[C@@H]1CCCCN1)S(=O)(=O)c1ccc(N)cc1
[1]
  CC50 at 24 h: > 100000 nM
[2]
  Ki: 2.03 nM
[3]
  IC50: 9.04 nM
[4]
  selectivity ratio: > 11100

## CC(C)CN(C[C@@H](O)[C@H](Cc1ccccc1)NC(=O)C1CCNCC1)S(=O)(=O)c1ccc(C(F)(F)F)cc1
[2]
  Ki: 5.93 nM
[3]
  IC50: 26.5 nM

## CC(C)CN(C[C@@H](O)[C@H](Cc1ccccc1)NC(=O)OC[C@H]1CCCNC1)S(=O)(=O)c1ccc(C(F)(F)F)cc1
[1]
  CC50 at 24 h: > 100000 nM
[2]
  Ki: 2.61 nM
[3]
  IC50: 11.7 nM
[4]
  selectivity ratio: > 8580

## CC(C)CN(C[C@@H](O)[C@H](Cc1ccccc1)NC(=O)OC[C@H]1CCCNC1)S(=O)(=O)c1ccc(N)cc1
[1]
  CC50 at 24 h: > 100000 nM
[2]
  Ki: 1.01 nM
[3]
  IC50: 4.53 nM
[4]
  selectivity ratio: > 22100

## COc1ccc(S(=O)(=O)N(CC(C)C)C[C@@H](O)[C@H](Cc2ccccc2)NC(=O)C2CCNCC2)cc1
[1]
  CC50 at 24 h: > 100000 nM
[2]
  Ki: 0.55 nM
[3]
  IC50: 2.45 nM
[4]
  selectivity ratio: > 40800

## CC(C)CN(C[C@@H](O)[C@H](Cc1ccccc1)NC(=O)OC[C@@H]1CCCNC1)S(=O)(=O)c1ccc(C(F)(F)F)cc1
[1]
  CC50 at 24 h: > 100000 nM
[2]
  Ki: 1.73 nM
[3]
  IC50: 7.71 nM
[4]
  selectivity ratio: > 13000

## CC(C)CN(C[C@@H](O)[C@H](Cc1ccccc1)NC(=O)[C@@H]1CCCCN1)S(=O)(=O)c1ccc(C(F)(F)F)cc1
[2]
  Ki: 4.61 nM
[3]
  IC50: 20.6 nM
